These results are taken from paper PMC6695747, “Primaquine and Chloroquine Fumardiamides as Promising Antiplasmodial Agents” (Molecules, 2019).

Where two headings read alike, the source gives them in different places. Where only a bound is given, the exact number is not on record here.

Series [1] deals with P. falciparum PfDd2 (CQ-resistant) erythrocytic stages. The series can be described thus: In vitro drug sensitivity assay (HRP2-ELISA) against erythrocytic stages, strain Dd2. Type of series: cell-based. As to conditions: Plasmodium falciparum, 72 h, read-out: IC50 PfDd2. As for the experimental part:
(§1) Antiplasmodial activity of fumardiamides 1–6 and 11–16 was tested in a drug sensitivity assay against two laboratory P. falciparum strains (3D7—CQ-sensitive, and Dd2—CQ-resistant), as previously described, using the histidine-rich protein 2 (HRP2) assay. In brief, 96-well plates were pre-coated with the tested compounds in a three-fold dilution before ring stage parasites were added in complete culture medium at a hematocrit of 1.5% and a parasitaemia of 0.05%. After three days of incubation at 37 °C, 5% CO2, and 5% oxygen, plates were frozen until analyzed by HRP2-ELISA. All compounds were evaluated in duplicate in at least two independent experiments. The IC50 was determined by analysing the nonlinear regression of log concentration-response curves using the drc-package v0.9.0 of R v2.6.1 [27].
For orientation: An ELISA detects its analyte on a solid surface through an enzyme-linked reagent.

Series [2] has as its system P. falciparum Pf3D7 (CQ-sensitive) erythrocytic stages. The series can be described thus: In vitro drug sensitivity assay (HRP2-ELISA) against erythrocytic stages, strain 3D7. In kind it is cell-based. Particulars: Plasmodium falciparum, 72 h, read-out: IC50 Pf3D7. As for the experimental part: as §1
Series [3] relates to P. berghei hepatic stages. Briefly: In vitro activity against P. berghei hepatic stages (luciferase parasite load in Huh7 cells). In kind it is cell-based. As to conditions: Plasmodium berghei, Huh-7, read-out: IC50 P. bergei. As for the experimental part: In vitro activity of the tested compounds against the liver stage of P. berghei infection was assessed as previously described. […] Next, 10 mM stock solutions of test compounds were prepared in DMSO and were serially diluted in infection medium, i.e., culture medium supplemented with gentamicin (50 μg/mL) and amphotericin B (0.8 μg/mL), in order to obtain the test concentrations.
To assess the effect of each compound concentration in cell viability, at 46 hours post-infection (hpi), cultures were incubated with Alamar Blue (Thermo Fisher Scientific, Waltham, MA, USA), according to the manufacturer’s recommendations. Parasite load was then assessed by the bioluminescence assay (Biotium, Fremont, CA, USA), using the multi-plate reader Infinite M200 (Tecan, Männedorf, Switzerland). Nonlinear regression analysis was employed to fit the normalized results of the dose–response curves, and IC50 values were determined using GraphPad Prism 6.0 (GraphPad Software, La Jolla California USA).

Series [4] concerns HEK293T (non-tumour embryonic kidney). Briefly: Cytotoxicity MTT assay, HEK293T. In kind it is cell-based. Particulars: Homo sapiens, HEK-293T, read-out: IC50 HEK293T. As for the experimental part:
(§2) The experiments were carried out on 2 human cell lines: MCF-7 (breast carcinoma) and HEK293T (embryonic kidney). MCF-7 and HEK293T cells were cultured as monolayers and maintained in Dulbecco’s modified Eagle medium (DMEM), supplemented with 10% fetal bovine serum (FBS), 2 mM L-glutamine, 100 U/mL penicillin, and 100 μg/mL streptomycin in a humidified atmosphere with 5% CO2 at 37 °C. The panel cell lines were inoculated in parallel onto a series of standard 96-well microtiter plates on day 0, at 1 × 10^4 to 3 × 10^4 cells/mL, depending on the doubling time of a specific cell line. Test compounds were then added in five 10-fold dilutions (10^−8 to 10^−4 M) alone or in combination with 6-AN (c = 1 µM) and incubated for a further 72 hours. Working dilutions were freshly prepared on the day of the testing.
(§3) After 72 hours of incubation, the cell growth rate was evaluated by performing the MTT assay. The absorbance was directly proportional to cell viability. Each test point was performed in quadruplicate in three individual experiments. The IC50 values were calculated from the dose–response curves using linear regression analysis. Each result is a mean value from at least two separate experiments.
For orientation: Tetrazolium dyes change colour on reduction, which living cells bring about.

Series [5] concerns MCF-7 (breast adenocarcinoma). Briefly: Cytotoxicity MTT assay, MCF-7. In kind it is cell-based. As to conditions: Homo sapiens, read-out: IC50 MCF-7. The procedure: as §2, §3
Details of series [6]: method as in PMID 24360369. Particulars: cited from earlier work.
Setting [7] is: erythrocytic stages, CQ-resistant strain, three days of incubation, HRP2-ELISA.
[8] abbreviates: erythrocytic stages, CQ-sensitive strain, three days of incubation, HRP2-ELISA.

A word on the IC50: it is the concentration that inhibits the measured activity by half. Consider `CCN(CC)CCCC(C)Nc1ccnc2cc(Cl)ccc12` (stereo not shown) [CQ, chloroquine], for which the results for the 50% inhibitory concentration (IC50) in series [1] and in series [2] were 0.241 µM and 0.0037 µM, respectively.
Turning to `COc1cc(NC(C)CCCNC(=O)/C=C/C(=O)Nc2cccc(F)c2)c2ncccc2c1` (stereo not shown) [Compound 1], the IC50 in series [1] (setting [7]) is 20 µM; in series [2] (setting [8]), 13.8 µM.
`COc1cc(NC(C)CCCNC(=O)/C=C/C(=O)Nc2ccc(F)cc2)c2ncccc2c1` (stereo not shown) [Compound 2]: the figures for the IC50 in series [1] (setting [7]) and in series [2] (setting [8]) were more than 13 µM and 7.74 µM, respectively.
On to `COc1cc(NC(C)CCCNC(=O)/C=C/C(=O)Nc2cccc(Cl)c2)c2ncccc2c1` (stereo not shown) [Compound 3], for which the IC50 in series [1] (setting [7]) was 13.6 µM; in series [3] it was 0.27 ± 0.06 µM; in series [2] (setting [8]), more than 13 µM.
Take `COc1cc(NC(C)CCCNC(=O)/C=C/C(=O)Nc2ccc(Cl)cc2)c2ncccc2c1` (stereo not shown) [Compound 4]: the IC50 in series [1] (setting [7]) was more than 13 µM; in series [3], 0.39 ± 0.01 µM; in series [2] (setting [8]), more than 13 µM.
Regarding `COc1cc(NC(C)CCCNC(=O)/C=C/C(=O)Nc2cccc(C(F)(F)F)c2)c2ncccc2c1` (stereo not shown) [Compound 5], the IC50 in series [1] (setting [7]) is 10.7 µM; in series [3], 0.27 ± 0.08 µM; in series [4] (alone, 72 hours, MTT) it was not below 100 µM; in series [2] (setting [8]) it was 13.9 µM; in series [5] (MCF7, alone, 72 hours, MTT), not below 100 µM.
As for `NC(=O)c1ccc(N)nc1` [Compound 6-AN, 6-aminonicotinamide, reference compound], the IC50 in series [4] (72 h) amounted to 10 ± 7 µM; in series [5] (MCF7, 72 h), 2 ± 0.3 µM.
Turning to `COc1cc(NC(C)CCCNC(=O)/C=C/C(=O)Nc2ccc(C(F)(F)F)cc2)c2ncccc2c1` (stereo not shown) [Compound 6], the IC50 is 18.4 µM in series [1] (setting [7]); 0.11 ± 0.02 µM in series [3]; not below 100 µM in series [4] (alone, 72 hours, MTT); 13 µM in series [2] (setting [8]); not below 100 µM in series [5] (MCF7, alone, 72 hours, MTT).
Regarding `O=C(/C=C/C(=O)Nc1cccc(F)c1)NCCCCNc1ccnc2cc(Cl)ccc12` [Compound 11, (2E)-N’-{4-[(7-chloroquinolin-4-yl)amino]butyl}-N-(3-fluorophenyl)but-2-enediamide], the figures for the IC50 in series [1] (setting [7]) and in series [2] (setting [8]) were 7.02 µM and 0.144 µM, respectively.
For orientation: melting point means the temperature of the solid-liquid transition. In the case of `O=C(/C=C/C(=O)Nc1ccc(F)cc1)NCCCCNc1ccnc2cc(Cl)ccc12` [Compound 12, (2E)-N’-{4-[(7-chloroquinolin-4-yl)amino]butyl}-N-(4-fluorophenyl)but-2-enediamide], the melting point was 239 °C (dec.). For the same molecule, the IC50 in series [1] (setting [7]) was 1.88 µM. Also, the IC50 in series [2] (setting [8]) is 0.067 µM.
As to `O=C(/C=C/C(=O)Nc1cccc(Cl)c1)NCCCCNc1ccnc2cc(Cl)ccc12` [Compound 13, (2E)-N-(3-chlorophenyl)-N’-{4-[(7-chloroquinolin-4-yl)amino]butyl}but-2-enediamide], the IC50 came out at 6.96 µM in series [1] (setting [7]) and 0.083 µM in series [2] (setting [8]).
As for `O=C(/C=C/C(=O)Nc1ccc(Cl)cc1)NCCCCNc1ccnc2cc(Cl)ccc12` [Compound 14, (2E)-N-(4-chlorophenyl)-N’-{4-[(7-chloroquinolin-4-yl)amino]butyl}but-2-enediamide], the melting point is 237 °C (dec.). The IC50 in series [1] (setting [7]) worked out at 0.89 µM. Moreover, the IC50 in series [2] (setting [8]) stood at 0.035 µM.
Regarding `O=C(/C=C/C(=O)Nc1cccc(C(F)(F)F)c1)NCCCCNc1ccnc2cc(Cl)ccc12` [Compound 15, (2E)-N’-{4-[(7-chloroquinolin-4-yl)amino]butyl}-N-[3-(trifluoromethyl)phenyl]but-2-enediamide], the concentration for half-maximal inhibition (IC50) in series [1] (setting [7]) came out at 3.22 µM; in series [2] (setting [8]), 0.194 µM.
For `O=C(/C=C/C(=O)Nc1ccc(C(F)(F)F)cc1)NCCCCNc1ccnc2cc(Cl)ccc12` [Compound 16, (2E)-N’-{4-[(7-chloroquinolin-4-yl)amino]butyl}-N-[4-(trifluoromethyl)phenyl]but-2-enediamide], the melting point was 270 °C (dec.). The IC50 in series [1] (setting [7]) was found to be 0.379 µM. Further, the IC50 in series [2] (setting [8]) was 0.035 µM.
For `COc1cc(NC(C)CCCN)c2ncccc2c1` (stereo not shown) [PQ, primaquine], the IC50 worked out at 1.82 µM in series [1] (setting [7]), 8.4 ± 3.4 µM in series [3] and 1.99 µM in series [2] (setting [8]).
Consider `COc1cc(C)c2c(Oc3cccc(C(F)(F)F)c3)c(OC)cc(NC(C)CCCN)c2n1` (stereo not shown) [TQ, Tafenoquine], for which the elimination half-life entry in series [6] is reported as “approximately 15 days”.
